Measurements: PMC10877733, “Discovery and Characterization of VU0542270, the First Selective Inhibitor of Vascular Kir6.1/SUR2B KATP Channels” (Molecular Pharmacology, 2024)

Key:
[1] = Brain homogenate binding by equilibrium dialysis, mouse; assay type: in vitro ADME; conditions: read-out: Fu, brain (mouse)
Description: Determination of VU0542270 fu in […] from mouse and rat was conducted using the same methodology and procedure as described for plasma protein binding assay with the following modifications: 1) a final compound concentration of 1 μM was used, and 2) naïve rat brains were homogenized in DPBS (1:3 composition of brain:DPBS, w/w) using a Mini-Bead Beater machine to obtain brain homogenate.
The diluted fraction unbound (fu2) in brain was calculated as (analyte to IS MS peak area ratio from Trans-buffer side)/(analyte to IS MS peak area ratio from Cis-brain homogenate side). Undiluted fraction unbound for the brain was calculated using the following equation: [drawing 1]
Mean values for each species were calculated from three replicates.

[2] = Intrinsic clearance in liver microsomes, human; assay type: in vitro ADME
Description: (§1) The in vitro intrinsic clearance (CLint) of VU0542270 was investigated in commercially obtained hepatic microsomes from rat, mouse, and human donors using the substrate depletion (i.e., loss-of-parent versus time, or t1/2 method) approach with analyte detection via LC-MS/MS. For each species, mean per cent parent remaining values at each time point were calculated from replicates raw data (analyte:IS peak area ratios) and used to determine in vitro t1/2 and CLint.
(§2) Experiments were carried out using a robot-assisted liquid handling system (TECAN model Evo 200). VU0542270 was incubated (1 µM final concentration) in buffer (100 mM potassium phosphate, pH 7.4, with 3 mM MgCl2) containing hepatic microsomes (0.5 mg/mL final concentration) from multiple species, discretely, at 37°C under constant orbital shaking. After 5 minutes (preincubation), reactions were initiated by the addition of NADPH (1 mM final concentration). At selected time intervals (0, 3, 7, 15, 25, and 45 minutes) post addition of NADPH, aliquots (50 µL) were taken and placed into a 96-shallow-well plate containing ice-cold acetonitrile (150 µL) with carbamazepine (IS, 50 nM). The plates were then centrifuged (3000 rcf at 4°C) for 10 minutes. […]
(§3) Predicted hepatic clearance (CLhep) was calculated using the following equation: [drawing 4] […]

[3] = Intrinsic clearance in liver microsomes, rat; assay type: in vitro ADME
Description: as §1, §2, §3

[4] = Rat intravenous pharmacokinetics; assay type: in vivo; conditions: for MRT: iv
Description: All animal housing and experimental procedures were approved by the Vanderbilt University Animal Care and Use committee and followed the guidelines set forth by the Guide for the Care and Use of Laboratory Animals. VU0542270 was formulated as a solution in ethanol, PEG400, and saline (1:4:5 v/v, respectively) at a concentration of 1 mg/mL and administered as a single 1-mg/kg IV dose (1 mL/kg) to male Sprague Dawley rats (n = 2; between 366–418 g body weights) via injection into a surgically implanted jugular vein catheter. Blood samples were collected serially from a surgically implanted carotid artery catheter in each animal over multiple postadministration time points (0.033, 0.117, 0.25, 0.5, 1, 2, 4, 7, and 24 hours) into chilled K2EDTA anticoagulant-fortified tubes and immediately placed on wet ice. The blood samples were then centrifuged [1700 relative centrifugal force (rcf), 5 minutes, 4°C] to obtain plasma samples, which were stored at −80°C until analysis by liquid chromatography tandem mass spectrometry (LC-MS/MS). The intravenous pharmacokinetic (PK) data were used for the calculation of relevant intravenous pharmacokinetic parameters [plasma clearance (CLp), volume of steady state, elimination half-life (t1/2), and mean residence time]. In vivo pharmacokinetic parameters of VU0542270 were determined from the observed individual animal time-versus-concentration data using noncompartmental analysis via WinNonlin (WNL; v.5.3, Pharsight Corp., Mountain View, CA.).
Plasma samples from the in-life phases of the studies were thawed at ambient temperature (benchtop), and then aliquots (20 µL per sample) were transferred to a 96-shallow-well (V-bottom) plate. Matrix-matched quality-control samples and a standard curve of VU0542270 (1 mg/mL DMSO stock solution) were prepared in blank rat plasma (K2EDTA treated) or blank brain homogenate via serial dilution and transferred (20 µL each) to the plate along with multiple blank plasma and brain homogenate samples. Acetonitrile (120 µL) containing internal standard (50 nM carbamazepine) was added to each well of the plate to precipitate protein. The plate was then centrifuged (4000 rcf, 5 minutes, ambient temperature), and resulting supernatants (60 µL each) were transferred to a new 96-shallow-well (V-bottom) plate containing an equal volume (60 µL per well) of water (Milli-Q purified). The plate was then sealed in preparation for LC-MS/MS analysis (see below).
Prepared samples were injected (10 µL each) onto an AB Sciex triple quad-4500 mass spectrometer system with an Agilent 1290 Infinity Binary Pump and multisampler. Analytes were separated on a reverse phase column Phenomenex Kinetex C18 (50 × 2.1 mm, 5 µm) that was thermostated at 40°C. High-pressure liquid chromatography mobile phase A was 0.5% formic acid in water (pH unadjusted); mobile phase B was 0.5% formic acid in acetonitrile (pH unadjusted). […] The column was re-equilibrated (1 minute) before the next sample injection. The total run time was 2.55 minutes, and the high-pressure liquid chromatography flow rate was 0.5 ml/min. The source temperature was set at 500°C, and mass spectral analyses were performed using a Turbo-Ion spray source in positive ionization mode (5.0-kV spray voltage) and using multiple-reaction monitoring of transitions specific for both analyte (m/z 335.7–236.7 at 35 eV) and internal standard (m/z 237.0–193.9 at 25 eV). Quantitation of VU0542270 was performed via AB Sciex Analyst software using the raw analyte:IS peak area ratios. The typical detection range for VU0542270 was 0.5 ng/mL to ≥5000 ng/mL, utilizing a quadratic equation regression with 1/x^2 weighting.

[5] = corrected to plasma unbound fraction

For `Cc1nc(-c2cccs2)sc1CNC(=O)Nc1cccs1` [VU0542270], the fraction unbound at 6 h, 1 µM [1] was 0.02, the “Predicted CLhep,u (human)” value [2, 5] was 1.3 mL/min per kg and the “Predicted CLhep (human)” value ([2]; from microsomal CLint) was 19 mL/min per kg. For the same molecule, the “Predicted CLhep,u (rat)” value [3, 5] was 6.0 mL/min per kg, the “Predicted CLhep (rat)” value ([3]; from microsomal CLint) was 63 mL/min per kg and the half-life ([4]; male, Sprague Dawley, plasma, 1 mg/kg, rat IV PK) was 38.4 min. It also gave a clearance ([4]; male, Sprague Dawley, plasma, rat, 1 mg/kg IV, read-out: CLp) of 17.7 mL/min/kg, a Vd ([4]; male, Sprague Dawley, plasma, rat, 1 mg/kg IV, read-out: Vss) of 0.2 L/kg and an MRT ([4]; male, Sprague Dawley, rat, plasma, 1 mg/kg, 1 mg/kg IV) of 11.4 min. It also gave an MRT ([4]; male, Sprague Dawley, rat, plasma, 1 mg/kg, rat IV PK) of 10.2 min and a t1/2 ([4]; rat, 1 mg/kg IV) of 38.4 min.
